# Assay results published in PubChem BioAssay (NCI).
#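 In this assay, cells in 96-well plates receive the compound at five concentrations for 48 hours. Endpoints are linearly interpolated between the surrounding concentrations. The concentration for 50% growth inhibition is given as GI50. TGI denotes the concentration required for complete inhibition of growth.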
# Columns and labels:
# Assay in all cases: NCI tumour cell line growth inhibition, 48 h
# RXF-631 renal = test system: RXF-631 renal
# LXFL 529 NSCLC = test system: LXFL 529 NSCLC
# DLD-1 colon = test system: DLD-1 colon
# HOP-18 NSCLC = test system: HOP-18 NSCLC
# SNB-78 CNS = test system: SNB-78 CNS
# KM20L2 colon = test system: KM20L2 colon
# BT-549 breast = test system: BT-549 breast
# NCI/ADR-RES ovarian = test system: NCI/ADR-RES ovarian
# MCF7 breast = test system: MCF7 breast
# SN12K1 renal = test system: SN12K1 renal
# P388 leukemia = test system: P388 leukemia
# P388/ADR leukemia = test system: P388/ADR leukemia
Structure (SMILES),TGI (RXF-631 renal) [µM],TGI (LXFL 529 NSCLC) [µM],TGI (DLD-1 colon) [µM],TGI (HOP-18 NSCLC) [µM],TGI (SNB-78 CNS) [µM],TGI (KM20L2 colon) [µM],TGI (BT-549 breast) [µM],TGI (NCI/ADR-RES ovarian) [µM],GI50 (MCF7 breast) [µM],TGI (MCF7 breast) [µM],TGI (SN12K1 renal) [µM],GI50 (BT-549 breast) [µM],TGI (P388 leukemia) [µM],TGI (P388/ADR leukemia) [µM]
CN(C=O)/C=C/c1cc(O)ccc1O,> 100,33.6,39.4,31.4,56.2,> 62.4,,,,,,,,
COc1ccc(CCN=C2CCC(C(=O)NCCc3ccc(OC)c(OC)c3)N2)cc1OC (stereo unspecified),> 100,> 100,> 100,> 100,> 100,> 100,,,,,,,,
CN1CCc2c1nc(-c1ccc([N+](=O)[O-])cc1)c1c2N(C)CC1,> 100,> 100,> 100,> 100,> 100,> 100,,,,,,,,
C[N+](C)(C)CC1CCCC(C[N+](C)(C)C)C1O (stereo unspecified),> 100,> 100,> 100,> 100,> 100,> 100,,,,,,,,
O=C(c1ccc(Cl)cc1)C1OC12C(=O)Nc1ccccc12 (stereo unspecified),34.7,11.8,6.29,27,32.4,41.3,31.4,,,,,,,
FC1OC2OC1C(OCc1ccccc1)C(OCc1ccccc1)C2OCc1ccccc1 (stereo unspecified),> 100,> 100,> 100,96.4,> 100,> 100,,,,,,,,
CCCCCCCCCCCCCc1nn[nH]n1,29.3,31.2,31.8,28.2,43.6,37.4,,,,,,,,
CC1CC[C@]2(C(=O)O)CCC3(C)C(=CCC4[C@@]5(C)CC[C@H](OS(=O)(=O)c6ccccc6)C(C)(C)C5CC[C@]43C)[C@@H]2[C@H]1C (stereo partly specified),> 100,> 100,> 100,> 100,> 100,,,,,,,,,
COc1ccccc1NC(=O)C(CC(C(=O)Nc1ccccc1OC)/C(C)=N/Nc1ccc([N+](=O)[O-])cc1[N+](=O)[O-])/C(C)=N/Nc1ccc([N+](=O)[O-])cc1[N+](=O)[O-] (stereo unspecified),> 100,> 100,> 100,> 100,> 100,> 100,,,,,,,,
Nc1ccc(S(=O)(=O)Nc2cnc3c(Cl)cccc3n2)cc1,,,> 655,> 750,528,> 750,> 750,629,45.3,> 721,472,220,> 750,> 750
COc1ccc(C2CCc3cc4c(cc3/C2=N/OC(C)=O)OCO4)cc1OC (stereo unspecified),> 100,> 100,,> 100,> 100,72.3,,,,,,,,
